According to article PMC4503722, “Novel Phenotypic Outcomes Identified for a Public Collection of Approved Drugs from a Publicly Accessible Panel of Assays” (PLoS ONE, 2015):
Read-outs that look alike come from different tables or passages of the source.

Columns and labels:
Assay in all cases: cells
NCI-H716 cells = format: cell-based, Human
SW480 = format: cell-based
HCT116 = format: cell-based
INS-1E cells = format: cell-based, rat
HT-29 = format: cell-based
[1] = system: nuclear β-catenin in C2C12 cells; format: cell-based
DLD-1 = format: cell-based
[2] = system: endothelial tube formation in co-cultures of ECFCs and ADSCs treated with VEGF; format: cell-based, human
SNU-C1 = format: cell-based
Colo320 = format: cell-based
RKO = format: cell-based; settings: read-out: Basal_Viability ATP RKO
[3] = system: HCT116 cells treated with a GSK3β inhibitor; format: cell-based
HeLa cells = format: cell-based; settings: HeLa, HeLa, read-out: CellCycle G2/M
[4] = Homo sapiens, NCI-H716; read-out: GLP 1 Secretion
[5] = Homo sapiens, SW480, basal, SW480, read-out: Basal_Viability ATP SW480
[6] = Homo sapiens, HCT-116, basal, HCT116, read-out: Basal_Viability ATP HCT116
[7] = Rattus norvegicus, INS-1E; read-out: Insulin Secretion
[8] = Homo sapiens, HT-29, read-out: Basal_Viability ATP HT-29
[9] = Homo sapiens, DLD-1, basal, DLD-1, read-out: Basal_Viability ATP DLD-1
[10] = Homo sapiens; read-out: Anti-Angiogenesis
[11] = Homo sapiens, SNU-C1, basal, SNU-C1, read-out: Basal_Viability ATP SNU-C1
[12] = Homo sapiens, basal, Colo 320, read-out: Basal_Viability ATP Colo 320
[13] = Homo sapiens, HCT-116, HCT116 pretreated with GSK3b inhibitor, read-out: GSK3b inh pretreated_Viability ATP HCT116
[14] = Homo sapiens, S2 Table, 20 = no response at highest concentration

## O=C1C(I)=CC(=C(c2cc(I)c(O)c(I)c2)c2ccccc2C(=O)O)C=C1I [Iodotetragnost]
NCI-H716 cells; [4]
  EC50: > 10 µM
SW480; [5]
  IC50: 0.112 µM
HCT116; [6]
  IC50: 0.384 µM
INS-1E cells; [7]
  EC50: > 10 µM
HT-29; [8]
  IC50: 5.73 µM
[1]; Mus musculus, C2C12; read-out: Wnt Pathway
  EC50: > 20 µM
DLD-1; [9]
  IC50: 0.0132 µM
[2]; [10]
  IC50: > 10 µM
SNU-C1; [11]
  IC50: 3.76 µM
Colo320; [12]
  IC50: 0.312 µM
RKO; Homo sapiens, basal, RKO
  IC50: 0.0373 µM
[3]; [13]
  IC50: 0.054 µM
HeLa cells; [14]
  EC50: > 10 µM

## CCCCCCCCCCCC[N+](C)(C)Cc1ccccc1 [dimethyldodecylbenzylammonium]
NCI-H716 cells; S2 Table; module primary assay; 20 / 20.1 codes per legend; read-out: GLP 1 Secretion
  EC50: > 10 µM
SW480; basal, SW480, read-out: Basal_Viability ATP SW480
  IC50: 7.95 µM
HCT116; basal, HCT116, read-out: Basal_Viability ATP HCT116
  IC50: 1.96 µM
INS-1E cells; S2 Table; module primary assay; 20 / 20.1 codes per legend; read-out: Insulin Secretion
  EC50: > 10 µM
HT-29; basal, HT-29, read-out: Basal_Viability ATP HT-29
  IC50: 0.465 µM
[1]; S2 Table; module primary assay; 20 / 20.1 codes per legend; read-out: Wnt Pathway
  EC50: > 10 µM
DLD-1; basal, DLD-1, read-out: Basal_Viability ATP DLD-1
  IC50: 0.738 µM
[2]; read-out: Anti-Angiogenesis
  IC50: > 10 µM
SNU-C1; basal, SNU-C1, read-out: Basal_Viability ATP SNU-C1
  IC50: 0.02 µM
Colo320; basal, Colo 320, read-out: Basal_Viability ATP Colo 320
  IC50: 8.99 µM
RKO; basal, RKO
  IC50: 3.07 µM
[3]; HCT116 pretreated with GSK3b inhibitor, read-out: GSK3b inh pretreated_Viability ATP HCT116
  IC50: > 20 µM
HeLa cells; S2 Table, 20 = no response at highest concentration
  EC50: > 10 µM

## O=C(Nc1ccc(Br)cc1)c1cc(Br)cc(Br)c1O [Tribromsalan]
NCI-H716 cells; [4]
  EC50: > 10 µM
SW480; [5]
  IC50: 0.001 µM
HCT116; [6]
  IC50: 0.003 µM
INS-1E cells; [7]
  EC50: > 10 µM
HT-29; Homo sapiens, basal, HT-29, read-out: Basal_Viability ATP HT-29
  IC50: 0.001 µM
[1]; Mus musculus, C2C12, S2 Table; module primary assay; 20 / 20.1 codes per legend; read-out: Wnt Pathway
  EC50: > 10 µM
DLD-1; [9]
  IC50: 0.001 µM
[2]; [10]
  IC50: 1.81 µM
SNU-C1; [11]
  IC50: 0.001 µM
Colo320; [12]
  IC50: 0.003 µM
RKO; Homo sapiens, basal, RKO
  IC50: 0.003 µM
[3]; [13]
  IC50: 0.001 µM
HeLa cells; [14]
  EC50: > 10 µM

## CO[C@@]12[C@H](COC(N)=O)C3=C(C(=O)C(C)=C(N)C3=O)N1C[C@@H]1N[C@@H]12 [Mitomycin]
NCI-H716 cells; Homo sapiens, NCI-H716, read-out: GLP 1 Secretion
  EC50: > 10 µM
SW480; Homo sapiens, SW480, read-out: Basal_Viability ATP SW480
  IC50: 12.1 µM
HCT116; Homo sapiens, HCT-116, read-out: Basal_Viability ATP HCT116
  IC50: 13.6 µM
INS-1E cells; Rattus norvegicus, INS-1E, read-out: Insulin Secretion
  EC50: > 10 µM
HT-29; [8]
  IC50: 2.57 µM
[1]; Mus musculus, C2C12, read-out: Wnt Pathway
  EC50: > 10 µM
DLD-1; Homo sapiens, DLD-1, read-out: Basal_Viability ATP DLD-1
  IC50: 5.63 µM
[2]; Homo sapiens, read-out: Anti-Angiogenesis
  IC50: 0.102 µM
SNU-C1; Homo sapiens, SNU-C1, read-out: Basal_Viability ATP SNU-C1
  IC50: 8.13 µM
Colo320; Homo sapiens, COLO 320, read-out: Basal_Viability ATP Colo 320
  IC50: 12.6 µM
RKO; Homo sapiens, RKO
  IC50: 0.995 µM
[3]; Homo sapiens, HCT-116, read-out: GSK3b inh pretreated_Viability ATP HCT116
  IC50: > 20 µM
HeLa cells; Homo sapiens
  EC50: > 10 µM

## O=C(c1cc(O)c(O)c(O)c1)c1ccc(O)c(O)c1O [Hexahydro-2,3,4,3',4',5'-benzophenone]
NCI-H716 cells; IC50 / EC50; NCI-H716; read-out: GLP 1 Secretion
  EC50: > 10 µM
SW480; basal, read-out: Basal_Viability ATP SW480
  IC50: 9.95 µM
HCT116; basal, read-out: Basal_Viability ATP HCT116
  IC50: 16.3 µM
INS-1E cells; IC50 / EC50; INS-1E; read-out: Insulin Secretion
  EC50: > 10 µM
HT-29; basal, read-out: Basal_Viability ATP HT-29
  IC50: 9.45 µM
[1]; IC50 / EC50; C2C12 beta-catenin translocation; read-out: Wnt Pathway
  EC50: > 10 µM
DLD-1; basal, read-out: Basal_Viability ATP DLD-1
  IC50: 11.9 µM
[2]; IC50 / EC50; endothelial tube area, ADSC/ECFC co-culture; read-out: Anti-Angiogenesis
  IC50: > 10 µM
SNU-C1; basal, read-out: Basal_Viability ATP SNU-C1
  IC50: 12.8 µM
Colo320; basal, read-out: Basal_Viability ATP Colo 320
  IC50: 9.38 µM
RKO; basal
  IC50: 0.192 µM
[3]; GSK3b inhibitor pretreated, read-out: GSK3b inh pretreated_Viability ATP HCT116
  IC50: 0.0691 µM
HeLa cells; IC50 / EC50
  EC50: > 10 µM
